We go through one compound from EPA's ToxValDB 9.5 (doi:10.2903/j.efsa.2015.4060).

Series [1] deals with Rattus norvegicus.
Series [2] deals with Folsomia candida. To be noted: chronic/long-term; duration: 28 days.
Series [3] concerns Colinus virginianus.
Series [4] relates to Oncorhynchus mykiss. The note with it: chronic/long-term; duration: 88 days; other.
Series [5] deals with Canidae. To be noted: chronic; duration: 53 weeks; oral; Dog Other; organ weight.
The subject of series [6] is Daphnia magna. To be noted: chronic/long-term; duration: 21 days; reproduction.
Series [7] concerns Apis mellifera. To be noted: acute, mortality.
The subject of series [8] is Tagia sp.
For series [9], the system named is Lepomis macrochirus. The note with it: acute; duration: 96 hours; mortality.
Series [10] relates to Hypoaspis aculeifer. The note with it: chronic/long-term; duration: 14 days.

For `Cc1ccc(C(C)NC(=O)[C@@H](NC(=O)OC(C)C)C(C)C)cc1` (stereo not given in full) [Iprovalicarb], the LD50 in series [1] (acute, oral, mortality) was above 5000 mg/kg-day; in [3] (acute, oral) it was above 2000 mg/kg-day; in [7] (dermal) it was above 200 µg/piece; in series [7] (oral, unspecified), above 199 µg/piece. Further, the NOAEL in [1] (chronic) worked out at 146 mg/kg-day; in [3] (reproduction developmental), 161 mg/kg-day. Further, the NOEC was at least 1000 mg/kg in series [2]; 5 mg/L in [4]; 1.89 mg/L in [6]; at least 64 mg/kg in series [8] (chronic/long-term, duration: 8 weeks); at least 1000 mg/kg in [10]. Moreover, the LC50 in [3] (acute, oral, diet) was above 1350 mg/kg-day; in [8] (acute, duration: 14 days, mortality), above 500 mg/kg; in series [9], above 20.7 µg/mL. In series [5], the LOAEL amounted to 3 mg/kg-day.
